# From US11952388B2, “Crystal form of tri-cycle compound and application thereof” (FUJIAN AKEYLINK BIOTECHNOLOGY CO., LTD., priority 2018, dated 2024)
# Experiment: Pre-stability (solid stability) test of crystal form B, HPLC analysis
# Assay type: physicochemical
# Method: [table] Note: • X indicates testing items, including: XRPD, content and related substances, day 0 samples were stored at −20° C.; • ICH indicate the illumination condition that guides the placement of the samples, i.e., illumination (total illuminance=1.2×10^6 Lux·hr/near ultraviolet=200 w·hr/m^2, with the lid open). About 10 mg of the crystal form B of the compound represented by formula (I) was weighed and placed at the bottom of a 40 mL glass bottle, and spread into a thin layer. The bottleneck was wrapped with aluminum foil paper (except for illuminated samples), and some small holes were punctured on the aluminum foil paper to ensure that the samples can fully contact the ambient air. The illuminated sample was placed at the bottom of a 40 mL glass bottle, which was placed vertically in the illuminated box with the lid open; the control sample was placed at the bottom of glass vials, which was placed vertically with the lid open, and wrapped with tin foil to protect it from light. Under each condition, 2 aliquots of sample were weighed in parallel at each time point, and an additional appropriate amount of sample (not weighed) was taken for XRPD detection. The prepared samples were placed under various conditions shown in the following Table, and samples were analyzed respectively by HPLC after reaching the time points. 1.1 Preparation of Diluent and Mobile Phase • Diluent: Acetonitrile:Water (2:1) • Example: 1000 mL of acetonitrile and 500 mL of water were mixed evenly, ultrasonically degassed, and cooled to room temperature. • Mobile phase A: 0.1% trifluoroacetic acid aqueous solution • Example: 2.0 mL of trifluoroacetic acid was added to 2 L of water and mixed well, ultrasonically degassed, and cooled to room temperature. • Mobile phase B: 100% acetonitrile The crystal form B of compound represented by formula (I) was used as control. The crystal form B of compound represented by formula (I) was placed in a glass bottle, then 5 mL of diluent was added into the bottle to a concentration of 1 mg/mL, and the solution was mix well ultrasonically. And then the mixture was diluted 5 times to obtain the control sample solution STD1. STD1 was diluted 1, 2, 4, 20 and 200 times to prepare a 1% control solution. Diluent was added to each test sample to a concentration of 10 mL, then the samples were ultrasonically dissolved. HPLC test was performed after cooling to room temperature. Meanwhile, the sample solution was diluted 5 times and mixed well, and then tested by HPLC. [table]
# [1] = Illumination of Control (light-proof)
smiles,measurement,setting,value
Cc1cc2n(c1)S(=O)(=O)c1ccc(C(=O)NCC[C@H]3COCCO3)cc1NC2=O,Assay (content of the sample),"40° C., 75% humidity, 1 month",100.6%
same,TRS (sum of impurities),"40° C., 75% humidity, 1 month",1.20%
same,impurity at relative retention time 0.87,"40° C., 75% humidity, 1 month",0.34%
same,impurity at relative retention time 1.07,"40° C., 75% humidity, 1 month",0.07%
same,impurity at relative retention time 1.12,"40° C., 75% humidity, 1 month",0.65%
same,impurity at relative retention time 1.14,"40° C., 75% humidity, 1 month",0.13%
same,Assay (content of the sample),"40° C., 75% humidity, 10 days",100.7%
same,TRS (sum of impurities),"40° C., 75% humidity, 10 days",1.19%
same,impurity at relative retention time 0.87,"40° C., 75% humidity, 10 days",0.34%
same,impurity at relative retention time 1.07,"40° C., 75% humidity, 10 days",0.06%
same,impurity at relative retention time 1.12,"40° C., 75% humidity, 10 days",0.65%
same,impurity at relative retention time 1.14,"40° C., 75% humidity, 10 days",0.13%
same,Assay (content of the sample),"60° C., 75% humidity, 1 month",100.3%
same,TRS (sum of impurities),"60° C., 75% humidity, 1 month",1.21%
same,impurity at relative retention time 0.87,"60° C., 75% humidity, 1 month",0.35%
same,impurity at relative retention time 1.07,"60° C., 75% humidity, 1 month",0.07%
same,impurity at relative retention time 1.12,"60° C., 75% humidity, 1 month",0.65%
same,impurity at relative retention time 1.14,"60° C., 75% humidity, 1 month",0.13%
same,Assay (content of the sample),"60° C., 75% humidity, 10 days",101.4%
same,TRS (sum of impurities),"60° C., 75% humidity, 10 days",1.20%
same,impurity at relative retention time 0.87,"60° C., 75% humidity, 10 days",0.35%
same,impurity at relative retention time 1.07,"60° C., 75% humidity, 10 days",0.07%
same,impurity at relative retention time 1.12,"60° C., 75% humidity, 10 days",0.65%
same,impurity at relative retention time 1.14,"60° C., 75% humidity, 10 days",0.13%
same,Assay (content of the sample),"60° C., 5 days",100.1%
same,TRS (sum of impurities),"60° C., 5 days",1.19%
same,impurity at relative retention time 0.87,"60° C., 5 days",0.35%
same,impurity at relative retention time 1.07,"60° C., 5 days",0.07%
same,impurity at relative retention time 1.12,"60° C., 5 days",0.65%
same,impurity at relative retention time 1.14,"60° C., 5 days",0.13%
same,Assay (content of the sample),"60° C., 10 days",100.1%
same,TRS (sum of impurities),"60° C., 10 days",1.21%
same,impurity at relative retention time 0.87,"60° C., 10 days",0.36%
same,impurity at relative retention time 1.07,"60° C., 10 days",0.07%
same,impurity at relative retention time 1.12,"60° C., 10 days",0.65%
same,impurity at relative retention time 1.14,"60° C., 10 days",0.13%
same,Assay (content of the sample),"92.5% humidity, 5 days",100.0%
same,TRS (sum of impurities),"92.5% humidity, 5 days",1.21%
same,impurity at relative retention time 0.87,"92.5% humidity, 5 days",0.36%
same,impurity at relative retention time 1.07,"92.5% humidity, 5 days",0.07%
same,impurity at relative retention time 1.12,"92.5% humidity, 5 days",0.65%
same,impurity at relative retention time 1.14,"92.5% humidity, 5 days",0.13%
same,Assay (content of the sample),"92.5% humidity, 10 days",100.7%
same,TRS (sum of impurities),"92.5% humidity, 10 days",1.20%
same,impurity at relative retention time 0.87,"92.5% humidity, 10 days",0.35%
same,impurity at relative retention time 1.07,"92.5% humidity, 10 days",0.06%
same,impurity at relative retention time 1.12,"92.5% humidity, 10 days",0.65%
same,impurity at relative retention time 1.14,"92.5% humidity, 10 days",0.13%
same,Assay (content of the sample),Day 0,100.5%
same,TRS (sum of impurities),Day 0,1.20%
same,impurity at relative retention time 0.87,Day 0,0.35%
same,impurity at relative retention time 1.07,Day 0,0.06%
same,impurity at relative retention time 1.12,Day 0,0.65%
same,impurity at relative retention time 1.14,Day 0,0.14%
same,Assay (content of the sample),"Illumination (1 ICH, lid open)",83.5%
same,TRS (sum of impurities),"Illumination (1 ICH, lid open)",9.50%
same,impurity at relative retention time 0.16,"Illumination (1 ICH, lid open)",0.07%
same,impurity at relative retention time 0.19,"Illumination (1 ICH, lid open)",0.32%
same,impurity at relative retention time 0.24,"Illumination (1 ICH, lid open)",0.12%
same,impurity at relative retention time 0.26,"Illumination (1 ICH, lid open)",0.12%
same,impurity at relative retention time 0.31,"Illumination (1 ICH, lid open)",0.12%
same,impurity at relative retention time 0.36,"Illumination (1 ICH, lid open)",0.19%
same,impurity at relative retention time 0.38,"Illumination (1 ICH, lid open)",0.08%
same,impurity at relative retention time 0.60,"Illumination (1 ICH, lid open)",0.28%
same,impurity at relative retention time 0.62,"Illumination (1 ICH, lid open)",0.12%
same,impurity at relative retention time 0.70,"Illumination (1 ICH, lid open)",0.10%
same,impurity at relative retention time 0.78,"Illumination (1 ICH, lid open)",0.16%
same,impurity at relative retention time 0.79,"Illumination (1 ICH, lid open)",0.24%
same,impurity at relative retention time 0.82,"Illumination (1 ICH, lid open)",2.26%
same,impurity at relative retention time 0.87,"Illumination (1 ICH, lid open)",4.49%
same,impurity at relative retention time 0.89,"Illumination (1 ICH, lid open)",0.07%
same,impurity at relative retention time 0.90,"Illumination (1 ICH, lid open)",0.07%
same,impurity at relative retention time 1.07,"Illumination (1 ICH, lid open)",<0.05%
same,impurity at relative retention time 1.12,"Illumination (1 ICH, lid open)",0.52%
same,impurity at relative retention time 1.14,"Illumination (1 ICH, lid open)",0.12%
same,impurity at relative retention time 1.42,"Illumination (1 ICH, lid open)",0.06%
same,Assay (content of the sample),[1],100.3%
same,TRS (sum of impurities),[1],1.18%
same,impurity at relative retention time 0.87,[1],0.34%
same,impurity at relative retention time 1.07,[1],0.07%
same,impurity at relative retention time 1.12,[1],0.64%
same,impurity at relative retention time 1.14,[1],0.13%
same,solid stability (conclusion in words),high temperature and high humidity conditions,stable under high temperature and high humidity conditions
